Results taken from PubChem BioAssay (NCI).
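1) Cells in 96-well plates. 2) Compound, 48 h, 5 concentrations. 3) Linear interpolation between surrounding doses. 4) Unreached endpoint = highest concentration. TGI: total growth inhibition.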

Tests used:
Assay in all cases: DTP human tumour cell line panel, 48 h
NCI/ADR-RES ovarian = system: NCI/ADR-RES ovarian
SNB-19 CNS = system: SNB-19 CNS
NCI-H460 lung = system: NCI-H460 lung
MDA-N = system: MDA-N
SK-OV-3 ovarian = system: SK-OV-3 ovarian
CAKI-1 renal = system: CAKI-1 renal
UACC-62 melanoma = system: UACC-62 melanoma
MALME-3M melanoma = system: MALME-3M melanoma
COLO 205 colon = system: COLO 205 colon
OVCAR-8 ovarian = system: OVCAR-8 ovarian
ACHN renal = system: ACHN renal
OVCAR-3 ovarian = system: OVCAR-3 ovarian
TK-10 renal = system: TK-10 renal
HOP-62 NSCLC = system: HOP-62 NSCLC
HS 578T breast = system: HS 578T breast
PC-3 prostate = system: PC-3 prostate
OVCAR-5 ovarian = system: OVCAR-5 ovarian
SF-268 CNS = system: SF-268 CNS
SK-MEL-5 melanoma = system: SK-MEL-5 melanoma
MDA-MB-435 = system: MDA-MB-435
LOX IMVI melanoma = system: LOX IMVI melanoma
786-0 renal = system: 786-0 renal
MOLT-4 leukemia = system: MOLT-4 leukemia
OVCAR-4 ovarian = system: OVCAR-4 ovarian
SN12C renal = system: SN12C renal
MCF7 breast = system: MCF7 breast
IGROV1 ovarian = system: IGROV1 ovarian
NCI-H23 lung = system: NCI-H23 lung
HCT-116 colon = system: HCT-116 colon
SF-295 CNS = system: SF-295 CNS
KM12 colon = system: KM12 colon
T-47D breast = system: T-47D breast
SR leukemia = system: SR leukemia
A549 NSCLC = system: A549 NSCLC
UO-31 renal = system: UO-31 renal
CCRF-CEM leukemia = system: CCRF-CEM leukemia
K-562 leukemia = system: K-562 leukemia
SW-620 colon = system: SW-620 colon
DU-145 prostate = system: DU-145 prostate
UACC-257 melanoma = system: UACC-257 melanoma
NCI-H226 lung = system: NCI-H226 lung
SNB-75 CNS = system: SNB-75 CNS
EKVX NSCLC = system: EKVX NSCLC
SK-MEL-28 melanoma = system: SK-MEL-28 melanoma
HOP-92 NSCLC = system: HOP-92 NSCLC
HT29 colon = system: HT29 colon
M14 melanoma = system: M14 melanoma
A498 renal = system: A498 renal
RXF 393 renal = system: RXF 393 renal
RPMI-8226 leukemia = system: RPMI-8226 leukemia
SF-539 CNS = system: SF-539 CNS
MDA-MB-231 breast = system: MDA-MB-231 breast
HL-60(TB) leukemia = system: HL-60(TB) leukemia
HCC-2998 colon = system: HCC-2998 colon
SK-MEL-2 melanoma = system: SK-MEL-2 melanoma
HCT-15 colon = system: HCT-15 colon
U251 CNS = system: U251 CNS

SMILES: Cc1nnc2n1-c1ccccc1-c1[nH]c3ccccc3c1C2
- TGI (NCI/ADR-RES ovarian): > 100 µM
- TGI (SNB-19 CNS): > 100 µM
- TGI (NCI-H460 lung): > 100 µM
- TGI (MDA-N): > 100 µM
- TGI (SK-OV-3 ovarian): > 100 µM
- TGI (CAKI-1 renal): > 100 µM
- TGI (UACC-62 melanoma): > 100 µM
- TGI (MALME-3M melanoma): > 100 µM
- TGI (COLO 205 colon): > 100 µM
- TGI (OVCAR-8 ovarian): > 100 µM
- TGI (ACHN renal): > 100 µM
- TGI (OVCAR-3 ovarian): > 100 µM
- TGI (TK-10 renal): > 100 µM
- TGI (HOP-62 NSCLC): > 100 µM
- TGI (HS 578T breast): > 100 µM
- TGI (PC-3 prostate): > 100 µM
- TGI (OVCAR-5 ovarian): > 100 µM
- TGI (SF-268 CNS): > 100 µM
- TGI (SK-MEL-5 melanoma): > 100 µM
- TGI (MDA-MB-435): > 100 µM
- TGI (LOX IMVI melanoma): > 100 µM
- TGI (786-0 renal): > 100 µM
- TGI (MOLT-4 leukemia): > 100 µM
- TGI (OVCAR-4 ovarian): > 100 µM
- TGI (SN12C renal): > 100 µM
- TGI (MCF7 breast): > 100 µM
- TGI (IGROV1 ovarian): > 100 µM
- TGI (NCI-H23 lung): > 100 µM
- TGI (HCT-116 colon): > 100 µM
- TGI (SF-295 CNS): > 100 µM
- TGI (KM12 colon): > 100 µM
- TGI (T-47D breast): > 100 µM
- TGI (SR leukemia): > 100 µM
- TGI (A549 NSCLC): > 100 µM
- TGI (UO-31 renal): > 100 µM
- TGI (CCRF-CEM leukemia): > 100 µM
- TGI (K-562 leukemia): > 100 µM
- TGI (SW-620 colon): > 100 µM
- TGI (DU-145 prostate): > 100 µM
- TGI (UACC-257 melanoma): > 100 µM
- TGI (NCI-H226 lung): > 100 µM
- TGI (SNB-75 CNS): 61.7 µM
- TGI (EKVX NSCLC): > 100 µM
- TGI (SK-MEL-28 melanoma): > 100 µM
- TGI (HOP-92 NSCLC): > 100 µM
- TGI (HT29 colon): > 100 µM
- TGI (M14 melanoma): > 100 µM
- TGI (A498 renal): 78.2 µM
- TGI (RXF 393 renal): > 100 µM
- TGI (RPMI-8226 leukemia): > 100 µM
- TGI (SF-539 CNS): > 100 µM
- TGI (MDA-MB-231 breast): > 100 µM
- TGI (HL-60(TB) leukemia): 70.8 µM

SMILES: CC(C)(C)COC1C2(OCCO2)C2CCC1(C)C2(C)C (stereo not drawn)
- TGI (NCI/ADR-RES ovarian): > 100 µM
- TGI (SNB-19 CNS): 41.7 µM
- TGI (NCI-H460 lung): > 100 µM
- TGI (MDA-N): > 100 µM
- TGI (SK-OV-3 ovarian): > 100 µM
- TGI (CAKI-1 renal): > 100 µM
- TGI (UACC-62 melanoma): > 100 µM
- TGI (MALME-3M melanoma): 64 µM
- TGI (COLO 205 colon): 91.1 µM
- TGI (OVCAR-8 ovarian): 55.9 µM
- TGI (ACHN renal): 42.1 µM
- TGI (OVCAR-3 ovarian): 33.3 µM
- TGI (TK-10 renal): > 100 µM
- TGI (HOP-62 NSCLC): 59.2 µM
- TGI (HS 578T breast): 90.1 µM
- TGI (PC-3 prostate): 54.5 µM
- TGI (OVCAR-5 ovarian): 73.8 µM
- TGI (SF-268 CNS): > 100 µM
- TGI (SK-MEL-5 melanoma): > 100 µM
- TGI (MDA-MB-435): > 100 µM
- TGI (LOX IMVI melanoma): 38 µM
- TGI (786-0 renal): 34.5 µM
- TGI (MOLT-4 leukemia): 39.7 µM
- TGI (OVCAR-4 ovarian): > 100 µM
- TGI (MCF7 breast): 37.3 µM
- TGI (IGROV1 ovarian): > 100 µM
- TGI (NCI-H23 lung): > 100 µM
- TGI (SF-295 CNS): 35.2 µM
- TGI (KM12 colon): 42 µM
- TGI (T-47D breast): 68.5 µM
- TGI (SR leukemia): 40.6 µM
- TGI (A549 NSCLC): 48 µM
- TGI (HCC-2998 colon): > 100 µM
- TGI (UO-31 renal): 65.1 µM
- TGI (CCRF-CEM leukemia): 37.8 µM
- TGI (K-562 leukemia): 35.7 µM
- TGI (SW-620 colon): 37.9 µM
- TGI (DU-145 prostate): > 100 µM
- TGI (UACC-257 melanoma): 70.5 µM
- TGI (NCI-H226 lung): > 100 µM
- TGI (SNB-75 CNS): 67.6 µM
- TGI (EKVX NSCLC): 79.9 µM
- TGI (SK-MEL-28 melanoma): > 100 µM
- TGI (HOP-92 NSCLC): 70.2 µM
- TGI (HT29 colon): 74.4 µM
- TGI (M14 melanoma): > 100 µM
- TGI (A498 renal): > 100 µM
- TGI (SK-MEL-2 melanoma): 50.2 µM
- TGI (RXF 393 renal): 36 µM
- TGI (RPMI-8226 leukemia): 41.7 µM
- TGI (SF-539 CNS): > 100 µM
- TGI (HCT-15 colon): 50 µM
- TGI (U251 CNS): 34.3 µM
- TGI (MDA-MB-231 breast): > 100 µM
- TGI (HL-60(TB) leukemia): 44.2 µM
